Results reported in patent US20080299590A1, “SHC protein-related methods and compositions” (Roger Williams Hospital, priority 2005, published 2008).

System: breast cancer patients
Experiment: Shc Test TMA study: protection by adjuvant tamoxifen or chemotherapy by Shc risk group (multivariate survival models)
Type: in vivo, human
Text: Materials and Methods: Patient samples included primary invasive tumor specimens from 4,326 British Columbian women in Tumor Micro-Array (TMA) format (no adjuvant therapy=1860; tamoxifen=1366; chemotherapy (AC, CMF, FAC, CEF)=744; relapsed=1752; died of disease=1334, average follow-up 13 yrs). Two additional sources were 65 primary tumor specimens from tamoxifen-only-treated patients (10 recurrences, 6.4 yrs average follow-up) from Roger Williams Medical Center (RWMC), and 32 (14 recurrences) from a published study (Massachusetts General Hospital (MGH)) (Ma et al., Cancer Cell, 5:1-10 (2004)). Immunohistochemistry (IHC) staining of the Shc proteins was scored on a continuous 0-5 scale by two pathologists, blinded to patient clinical data.
Analysis of relapse-free survival (RFS) and disease specific survival (DSS) used multivariate models under assumptions of both log-normality as well as proportionality of hazard rate.

For `CC/C(=C(\c1ccccc1)c1ccc(OCCN(C)C)cc1)c1ccccc1` [tamoxifen], the “hazard ratio (HR) of tamoxifen therapy” value (12% of patients classified as high risk by the Shc Test, node positive patients) was 0.26 and the benefit from tamoxifen (63% patients in the low risk group by the Shc Test) was “little benefit”.
